Results on 8 compounds are retold here after patent US10118934B2 (Wisconsin Alumni Research Foundation, priority 2014, dated 2018).

The target in data set [1] is T1, MtUGM (Mycobacterium tuberculosis, UniProt P9WIQ1). Particulars: compound library screened against MtUGM; cited from earlier work.
In data set [2] the target is T2, KpUGM (Klebsiella pneumoniae, UniProt Q48485).
T2 construct: His-tag; made in house; host or cells: E. coli BL21(DE3)
Kind of data set: biochemical. In kind it is binding. To be noted: for pKd: probe displacement in competitive-binding FP assay. On the procedure:
A fluorescence polarization assay was used to measure ligand binding to KpUGM [Soltero-Higgin et al. 2004, Carlson et al. 2006] Tumbling of the fluorescein-UDP conjugated probe was measured on a Tecan M1000 microplate reader, exciting with 470 nm light and monitoring emission at 525 nm. Each condition was tested in triplicate in the presence of 220 nM KpUGM and 23.3 nM of the probe. Data was fit with a one-site binding nonlinear regression in GraphPad Prism 6.

A short description of data set [3]: dynamic light scattering (DLS) detection of colloidal aggregation. It counts as physicochemical. On the procedure:
To evaluate aggregation by DLS compounds were diluted from concentrated stocks in DMSO into filtered 50 mM potassium phosphate, pH 7.0. The final DMSO concentration was 1%, and compound concentrations were usually 100 μM. Samples were run in duplicates. All measurements were made at room temperature using a DynaPro MS/X (Wyatt Technology) with a 55 mW laser at 826.6 nm. The laser power was 100%, and the detector angle was 90°.

The target in data set [4] is AmpC β-lactamase (Escherichia coli, UniProt P00811). It counts as biochemical. Particulars: for inhibition of AmpC β-lactamase: 100 μM. On the procedure:
(§1) Compounds were tested for inhibition of Malate Dehydrogenase and AmpC β-lactamase as reported. Assays were performed in 50 mM potassium phosphate buffer, pH 7.0 at 25° C. For AmpC the molecules were mixed with buffer and CENTA substrate (50 μM; Tydock Pharma; Modena, Italy) to a final concentration of 1% DMSO (v/v). Reactions were initiated by addition of β-Lactamase (1 nM). Change in absorbance was monitored at 405 nm for 3 minutes. For Malate Dehydrogenase assay (MDH; Sigma Cat# M-7032), the molecule was mixed with buffer and 2 nM final concentration of the enzyme to a final concentration of 1% DMSO (v/v) and were incubated for five minutes. MDH reactions were started by adding substrates: Oxaloacetic acid (20 mM stock in buffer, prepared fresh daily; Sigma Cat# O4126) to a final concentration 200 μM and NADH (20 mM stock in buffer—prepare fresh daily; Sigma Cat# N-4505) to a final concentration 200 μM. Change in absorbance was monitored at […] for 2.5 minutes. Absorbance was monitored on an HP 8453 UV—visible spectrophotometer (Agilent, Technologies, Santa Clara, Calif.). The assays were performed in duplicate in methacrylate disposable cuvettes.

For data set [5], the target named is T2, KpUGM. It counts as biochemical. To be noted: for effect of detergent on KpUGM inhibition: presence and absence of 0.025% Tween 80; for pKi: Lineweaver-Burk analysis, competitive inhibition. The method, then: Anal Biochem, 1996: p. […] J Med Chem, 2002. 45(8): p. 1712-22] we repeated the assay in the presence of detergent (0.025% Tween 80).
(§2) Enzymatic activity of recombinant UGM was monitored using an HPLC-based assay [Wesener et al., 2013; Lee et al. 1996; Zhang, Q. and H.-w. […] J. Amer. Chem. Soc., 2000. 122(38): p. 9065-9070]. Reactions were performed in duplicate at 22° C. in 50 mM NaH2PO4 buffer (pH 7) with 20 nM enzyme and 20 mM fresh sodium dithionite. Small molecules were added from DMSO stocks to a final concentration of 1% DMSO. Concentration of UDP-Galf [Marlow, A. L. and L. L. Kiessling, Improved Chemical Synthesis of UDP-Galactofuranose. Org Lett, 2001. 3(16): p. 2517-2519] was held constant at the Km of the UGM homolog being analyzed, except for generation of Lineweaver-Burk plots. Reaction time and substrate concentration were varied for Lineweaver-Burk analysis, and each condition was tested in triplicate. Quenched reactions were run through a CarboPac PA-100 column (Thermo Scientific) on an Agilent 1260 Infinity HPLC using an isocratic elution of 200 mM ammonium acetate (pH 8) to separate substrate and product peaks.

The subject of data set [6] is HEK293 cells. Kind of data set: cytotoxicity assay (CellTiter-Glo). It counts as cell-based. The method, then: Four thousand HEK 293T cells were added to wells of a sterile 96-well plate in 99 μl DMEM with 10% FBS. The plate was incubated for 24 hours at 37° C. with 5% CO2 to allow cells to attach. Cells were then treated with serially diluted small molecules or a vehicle control. The final DMSO concentration was 1% in each well. After 24 hours of incubation, viability of the treated cells was analyzed using CellTiter-Glo Luminescent Cell Viability Assay (Promega). Viability readings were normalized to DMSO control wells.
On the technique in general: In ATP-based viability assays light output follows the ATP content of the culture.

The target in data set [7] is T3, CdUGM (Corynebacterium diphtheriae, UniProt Q6NER4).
T3 construct: Open reading frame coding for residue 18-404 of CdUGM was amplified; His-tag with TEV cleavage site (N); made in house; host or cells: Escherichia coli ER2523
T3 sequence (Q6NER4 entry or part of it): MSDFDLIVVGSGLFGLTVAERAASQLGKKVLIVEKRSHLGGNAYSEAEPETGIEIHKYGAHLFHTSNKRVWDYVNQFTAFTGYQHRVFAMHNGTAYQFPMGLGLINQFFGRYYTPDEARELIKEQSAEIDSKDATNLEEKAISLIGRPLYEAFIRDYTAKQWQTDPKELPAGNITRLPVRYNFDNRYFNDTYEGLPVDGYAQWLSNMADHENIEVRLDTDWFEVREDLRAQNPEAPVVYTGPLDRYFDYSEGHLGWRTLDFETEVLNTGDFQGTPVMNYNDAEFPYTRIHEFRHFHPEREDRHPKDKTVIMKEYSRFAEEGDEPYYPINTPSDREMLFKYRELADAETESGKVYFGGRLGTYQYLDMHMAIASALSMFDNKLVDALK
Kind of data set: HPLC-based UGM activity assay, homolog specificity. It counts as biochemical, C. diphtheriae. Particulars: 100 μM compound. On the procedure: The specificity of in vitro UGM inhibition was assessed using purified recombinant UGM homologs. MtUGM and C. diptheriae UGM (CdUGM) share about 43% sequence identity with KpUGM, and 76% identity with each other. However, active site residues are highly conserved between the homologs. […] This trend was consistent for other analogs from this series (FIG. 14).
as §2

In data set [8] the test system is M. smegmatis. Kind of data set: microbroth dilution assay with alamar Blue readout. In kind it is cell-based, Mycobacterium smegmatis. Particulars: liquid culture. A general note: Broth dilution looks for growth in wells or tubes with falling amounts of substance.
Data set [9] concerns the target T1, MtUGM. Kind of data set: HPLC-based UGM activity assay, homolog specificity. It counts as biochemical. To be noted: 100 μM compound.
Data set [10] deals with B. subtilis. Kind of data set: broth microdilution, control strain without UGM. Particulars: control strain without UGM ortholog. It counts as cell-based.
Data set [11] addresses T4, Malate Dehydrogenase (MDH) (Thermus thermophilus, UniProt P10584).
T4 construct: purchased Sigma M-7032
Kind of data set: aggregation counter screen, malate dehydrogenase inhibition. In kind it is biochemical. The method, then:
as §1
A general note: A counterscreen serves to expose hits that act by an unwanted route or on another target.

Data set [12] has as its system B. subtilis. Description: disk diffusion assay. To be noted: solid media, 100 nmol per disk.
Method: (§3) 1-8], and M. smegmatis were grown, the former two species in LB broth and the later in 7H9 Middlebrook media. Cells were diluted to an OD600 of 0.2 in fresh media and spread (100 μL) onto LB agar plates. Following an hour of incubation at 37° C., sterile cloning disks (3.2 mm diameter, Scienceware) impregnated with 100 nmol of compound or 2 μL of DMSO were placed on the surface of the inoculated solid media. Cells were incubated at 37° C. overnight. Plates with M. smegmatis were incubated 3 additional days at room temperature. Zones of inhibition were measured from the outer edge of the cloning disk to the border of cell growth.
For data set [13], the system named is B strain E. coli. Kind of data set: broth microdilution, control strain without UGM. It counts as cell-based. To be noted: control strain without UGM ortholog.
Data set [14] deals with E. coli. Description: disk diffusion assay. In kind it is cell-based. To be noted: solid media, tested concentration. On the procedure: J Bacteriol, 1989. 171(3): p. […] Cells were incubated at 37° C. overnight.
In data set [15] the test system is M. smegmatis. Description: disk diffusion assay. Particulars: solid media, 100 nmol per disk.
Method: as §3

pIC50, pKd, pKi: −log10 of the molar value. ≈ marks a conversion by molar mass, not a printed value. Where “and” joins values, the source holds several entries; their conditions need not be identical. Equal entries are not always repeated. Entries after “also recorded” stand apart in the source; their conditions may differ. Where two headings read alike, the source gives them in different places.

T4 sequence (P10584 whole entry): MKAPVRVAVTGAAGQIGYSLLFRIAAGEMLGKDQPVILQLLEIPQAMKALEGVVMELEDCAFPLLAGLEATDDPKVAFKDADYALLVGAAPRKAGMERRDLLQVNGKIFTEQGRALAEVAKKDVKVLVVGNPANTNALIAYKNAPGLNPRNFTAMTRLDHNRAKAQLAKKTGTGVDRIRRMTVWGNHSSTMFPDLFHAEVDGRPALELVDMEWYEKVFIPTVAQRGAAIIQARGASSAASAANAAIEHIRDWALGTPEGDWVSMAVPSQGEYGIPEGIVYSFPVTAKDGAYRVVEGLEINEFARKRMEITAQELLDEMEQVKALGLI
T2 sequence (Q48485 24-384): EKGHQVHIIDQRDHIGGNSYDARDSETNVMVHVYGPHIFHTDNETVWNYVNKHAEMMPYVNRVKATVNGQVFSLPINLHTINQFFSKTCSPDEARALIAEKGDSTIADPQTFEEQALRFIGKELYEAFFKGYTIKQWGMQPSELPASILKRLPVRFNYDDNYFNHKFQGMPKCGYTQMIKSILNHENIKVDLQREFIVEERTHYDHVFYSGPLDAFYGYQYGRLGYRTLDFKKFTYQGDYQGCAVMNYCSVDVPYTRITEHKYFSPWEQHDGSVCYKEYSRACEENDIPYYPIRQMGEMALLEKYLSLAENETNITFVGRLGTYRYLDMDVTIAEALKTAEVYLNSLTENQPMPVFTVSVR
AmpC β-lactamase, sequence (P00811 20-377): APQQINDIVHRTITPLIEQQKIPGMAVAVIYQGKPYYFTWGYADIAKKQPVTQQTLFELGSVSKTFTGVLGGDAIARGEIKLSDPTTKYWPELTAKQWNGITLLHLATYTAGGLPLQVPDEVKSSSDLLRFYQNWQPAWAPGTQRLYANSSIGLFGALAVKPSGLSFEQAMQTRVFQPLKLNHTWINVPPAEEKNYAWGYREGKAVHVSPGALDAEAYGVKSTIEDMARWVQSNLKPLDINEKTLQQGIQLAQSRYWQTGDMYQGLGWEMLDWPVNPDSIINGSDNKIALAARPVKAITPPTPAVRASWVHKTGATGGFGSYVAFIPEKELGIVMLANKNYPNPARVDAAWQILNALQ
T1 sequence (P9WIQ1 whole entry): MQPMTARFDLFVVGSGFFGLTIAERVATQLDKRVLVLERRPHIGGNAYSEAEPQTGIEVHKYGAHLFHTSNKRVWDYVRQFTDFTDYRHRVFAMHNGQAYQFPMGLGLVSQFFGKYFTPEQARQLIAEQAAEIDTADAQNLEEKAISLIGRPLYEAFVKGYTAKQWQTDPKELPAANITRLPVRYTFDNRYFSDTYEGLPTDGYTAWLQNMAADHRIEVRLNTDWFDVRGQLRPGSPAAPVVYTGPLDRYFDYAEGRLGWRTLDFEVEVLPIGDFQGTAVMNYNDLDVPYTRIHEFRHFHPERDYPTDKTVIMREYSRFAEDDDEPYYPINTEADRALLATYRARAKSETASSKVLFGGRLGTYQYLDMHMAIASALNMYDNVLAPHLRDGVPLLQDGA

Take `O=C(O)CCC(=O)N1N=C(c2ccccc2)CC1c1cccs1` (stereo not shown) [Compound 3]: the “detection as hit in HTS” value in data set [1] was “not detected by HTS”.

For the compound `O=C(O)CC1Sc2nnc(-c3ccco3)n2N=C1c1ccccc1` (stereo not shown) [Compound 6], in data set [2], the pKd is 4.21 and 4.37. In addition, the “colloidal aggregation by DLS” value in data set [3] (100 μM) is given as “do not form detectable colloids; also recorded: do not aggregate; also recorded: no sign of colloidal aggregation”. In addition, the “inhibition of AmpC β-lactamase” value in data set [4] is given as “do not display any inhibition”. Also, in data set [5] (100 μM compound), the “effect of detergent on KpUGM inhibition” value is listed as “insensitive to detergent”. The negative-log Ki (pKi) in data set [5] was 4.11. Further, in data set [6] (HEK293 cells), the cellular toxicity entry was “no significant cellular toxicity”.

Consider `C=CCNc1nc(-c2cc(C)n(CCC(=O)O)c2C)cs1` [Compound 10], for which the negative logarithm of the Kd (pKd) in [2] is 5.05 and 5.22. For the same compound, the “colloidal aggregation by DLS” value in data set [3] (100 μM) is on record as “do not form detectable colloids; also recorded: no sign of colloidal aggregation”. For the same compound, the “inhibition of AmpC β-lactamase” value in data set [4] was “do not display any inhibition”. The “effect of detergent on KpUGM inhibition” value in [5] (100 μM compound) was “insensitive to detergent”.

`Cc1cc(-c2csc(NC(C)c3ccccc3)n2)c(C)n1CCC(=O)O` (stereo not shown) [Compound 14]: the “binding compared with compound 10” value in [2] (FP assay) is recorded as “slightly tighter binding than compound 10”. In data set [2], this compound showed a pKd of 5.35. Also, in data set [5] (in vitro, dose-dependent), the “KpUGM inhibition compared with lead compound 10” value is “improved KpUGM inhibition; also recorded: increased dose-dependent KpUGM inhibition”.

`O=C(O)CC1Sc2nnc(Cc3ccc(F)cc3)n2N=C1c1ccccc1` (stereo not shown) [Compound 19] gave a pKd in [2] of 4.82. Further, the “colloidal aggregation by DLS” value was “form colloidal aggregates; also recorded: do form colloids” in [3] (100 μM) and “show aggregation” in data set [3] (high concentrations).

On to `O=C(O)CC1Sc2nnc(-c3cccs3)n2N=C1c1ccc(Cl)cc1` (stereo not shown) [Compound 22], for which the pKd in data set [2] is 5.05 and 5.04. In data set [3] (100 μM), the “colloidal aggregation by DLS” value is “did not show any aggregation; also recorded: do not aggregate; also recorded: no sign of colloidal aggregation”. Also, the “inhibition of CdUGM” value in data set [7] amounted to 38%. Further, the “M. smegmatis growth repression” value in data set [8] (tested concentrations) is listed as “no M. smegmatis growth repression”. In data set [5], this compound had a negative-log Ki (pKi) of 5.15. The “inhibition of MtUGM” value in [9] was 19%.

Consider `Cc1ccc(C2=Nn3c(COc4ccc(Cl)cc4)nnc3SC2CC(=O)O)cc1` (stereo not shown) [Compound 24], for which, in data set [2], the pKd was 5.05 and 5.04. In addition, the “colloidal aggregation by DLS” value is recorded as “form colloidal aggregates; also recorded: do form colloids” in data set [3] (100 μM) and “show aggregation” in data set [3] (high concentrations). For the same compound, the “detection as hit in HTS” value in data set [1] is “not detected by HTS”.

With `O=C(O)CC1Sc2nnc(Cc3ccc(Br)cc3)n2N=C1c1ccc(Cl)cc1` (stereo not shown) [Compound 30], the MIC in data set [10] is 500 µM (≈ 239 µg/mL); in [13], above 500 µM; in data set [8] (46 hours of growth, alamar blue), 20 µM (≈ 9.56 µg/mL). Besides, the negative logarithm of the Kd (pKd) in data set [2] was 5.35 and 5.33. In addition, in [11] (addition of detergent), the “effect of detergent on MDH inhibition” value is given as “fully rescued by the addition of detergent; also recorded: reversible by the addition of detergent”. Moreover, the pIC50 in [11] (full dose response curve, no detergent) was 4.25. Further, the “inhibition of MDH” value in [11] (high concentrations) is given as “non-specific inhibition”. The figures for the “colloidal aggregation by DLS” value in [3] (10 μM), in data set [3] (100 μM) and in data set [3] (high concentrations) were “does not aggregate”, “forms colloidal aggregates; also recorded: do form colloids” and “show aggregation”, respectively. In data set [12], the “zone of growth inhibition” value is “significantly smaller than that observed for M. smegmatis”. For the same compound, the “cell-killing in disk diffusion” value in [14] is listed as “No cell-killing”. The “inhibition of AmpC” value in data set [4] (high concentrations) was “non-specific inhibition”. Besides, the “KpUGM activity in presence of compound” value in data set [5] (50 μM compound) and in [5] (100 μM compound) was “no measurable activity” each time. Also, the “selectivity between UGM homologs” value in data set [5] (KpUGM vs MtUGM and CdUGM) was “selective for KpUGM over MtUGM and CdUGM”. In data set [5], this compound had a pKi of 5.96. Also, the “potency relative to compound 22 in vitro” value in data set [5] (from Ki values) is reported as “about 5 fold”. Also, the “zone of growth inhibition, comparison within series” value in data set [15] is reported as “outperformed all other compounds of the series”. In addition, the “difference between LD50 and MIC for M. smegmatis” value in [6] was found to be 5 fold. For the same compound, the cellular toxicity result in [6] (HEK293 cells) is given as “only mildly toxic”. Moreover, the LD50 in data set [6] (HEK293 cells, 24 hours) was around 100 µM.

For orientation: pKd means the Kd on a negative log10 scale, so that one unit is a factor of ten. Low values mean a large Kd, high ones a small Kd. For orientation: pKi means −log10 of the Ki, conventionally taken in molar units. A low value points to a high Ki. What is called MIC is the least concentration at which growth counts as inhibited. Low readings indicate greater potency, high ones weaker potency. As usually defined, the pIC50 is the negative decadic logarithm of the IC50, by convention in mol/L.
